The test system of test [1] is Promega Mid-Range Molecular Weight Markers. The experiment in a line: Sensitive post-electrophoretic detection of protein using purified NBODY dye. On the procedure: A 12% SDS-PAGE gel was prepared as described in Example 27 and was loaded with dilute Promega Mid-Range Molecular Weight Markers (diluted and heated as in Example 27) to produce lanes which contained 100, 80, 60, 40, 20, 10 and 5 ng of protein per band. The gel was run in a BioRad Miniprotean II gel system at 50V for 1.5 hr. then 125V until the tracking dye reached the bottom of the gel. After the dye reached the bottom of the gel, the gel was removed from the apparatus and placed in 50 ml of 5% acetic acid, 20% ethanol.
The NBODY dye prepared as in Example 40 with n-dodecyl amine was purified by applying 2 ml of the NBODY-C12 reaction mixture from Example 40 3cm from one edge of a 25×25cm silica gel plate (Sigma Chemical Co., St. Louis, […]., USA). The plate was developed using a 6:1 ratio of tolulene:ethyl acetate. […]
After 30 minutes in the 5% acetic acid, 20 % ethanol, the gel was removed from that solution and replaced with a solution containing the purified NBODY-C12 stain with the following composition: one ml of purified NBODY-C12 solution was placed in 50 ml of 35% ethanol, 5% acetic acid. […] After one hour in the water solution, the gel was scanned on a Molecular Dynamics Fluoroimager (Molecular Dynamics, Sunnyvale, Calif.), which excites fluorescence with laser light of 483 nm wavelength.

Test [2] relates to Promega Mid-Range Molecular Weight Standards. The experiment in a line: Post-electrophoretic detection of protein using NBODY derivatives. The following applies: crude dye solution in 5% acetic acid, 20% ethanol, one hour. How it is done: Promega Mid-Range Molecular Weight Standards were diluted and heated as described in Example 27 to produce solutions containing 125, 25, 5 and 1 ng of protein per band in 10 microliters of solution. A 10% Tris Glycine, precast polyacrylamid gel from Novex Corp. (San Diego, Calif., USA, Cat. No. EC 6075.) was loaded with 10 microliters of the just described, diluted molecular weight standard solutions in lanes so that two lanes, each with the same diluted standard solution, were separated by a blank lane. The gel was developed using conditions recommended by the manufacturer and following development, the gel was cut in the blank lane. The segments were placed in 50 ml of 5% acetic acid, 20% ethanol. Six hundred microliters of the NBODY-C12 reaction mixture from Example 40 was added to the solution with one of the segments of a pair (of lanes with the same protein molecular weight standard solution) and three hundred microliters of the NBODY-C16 reaction mixture from Example 40 was added to the solution with the other segment of the same pair. After one hour of incubation, the gel segments were photographed on a transilluminator as described in example 27. Protein bands were detected in the lanes containing the 125 and 25 ng of protein per band using this method and the crude dye solutions from Example 40.

Test [3] has the same test system. The experiment in a line: Detection of proteins during SDS-PAGE with Acid Blue 25 dyes. The following applies: 0.01% (w/v) in cathode buffer (Example 23).
Text: Ten μl of each solution was loaded into lanes of the three gels, and they were placed into three separate Bio-Rad Miniprotean II gel apparati (Bio-Rad, Richmond, Calif., USA) with the cathode solutions containing 1.0, 0.75, or 0.5% (v/v) of the derivatized Acid Blue 25 preparation (unpurified). The samples were then fractionated within the gels by application of 15 mA of current per gel.

As for `CCCCCCCCCCCCNC(=O)CCCCCNc1ccc([N+](=O)[O-])c2nonc12` [NBODY-C12], the “visibility of protein bands” value in test [1] (lanes of 100 to 5 ng per band) was “Protein bands were seen for all of the protein species in the lanes containing all protein concentrations”. Further, in test [1] (purified dye in 35% ethanol, 5% acetic acid, one hour, water one hour, Fluoroimager 483 nm), the detection limit result is given as “lower than 5 ng”. Besides, the “lowest protein per band detected” value in test [2] is 25 ng.

`Nc1c(S(=O)(=O)O)cc(Nc2ccccc2)c2c1C(=O)c1ccccc1C2=O` [unmodified Acid Blue 25]: in test [3], the “visibility of protein bands during electrophoresis” value is “no protein bands were seen”.

The values above are taken from US5705649A, “Protein staining compositions and methods” (Promega Corporation, priority 1995, dated 1998).
